Common to all, as to type: biochemical
For assay [1], the target named is T1, PI3Kdelta (Homo sapiens, UniProt O00329).
T1 construct: His (N); host or cells: SF9 insect cells (baculovirus)
Put plainly: Human PI3K delta enzyme assay (HTRF, as for PI3K alpha). The conditions noted are these: read-out: PI3Kdelta % inh. An excerpt: (§1) The catalytic subunits of PI3Ks are cloned into either pDEST8(p110 alpha) or pDEST10(p110beta, p110delta, and p110gamma) as N-terminal His tagged fusion proteins using the Gateway system (Invitrogen, catalog#11804-010 for pDEST8 and 11806-015 for pDEST10). The sequences are verified before recombinant protein expression using the Baculovirus Expression System with Gateway® Technology. The accession numbers for the subunits are as follows:
(§2) The regulatory subunits of PI3Ks are cloned into pDEST8 as un-tagged protein using the Gateway system (Catalog#11804-010). The sequences are verified before recombinant protein expression using the Baculovirus Expression System with Gateway® Technology. The accession numbers for the subunits are as follows:
(§3) For expression of the p110 complexes, the p85 (MOI of 4) is co-infected with p110 alpha, beta, and delta respectively (1MOI) in SF9 cells and harvested at 60 hours post co-infection. P110 gamma was infected at 1 MOI and harvested at 60 hours post infection.
(§4) For purification, PI3Ks are purified by Ni-NTA Agarose (Qiagen #30250) followed by Mono Q 10/100 GL (Ge Healthcare #17-5167-01). VPS34 is purified by Glutathione Sepharose 4 Fast Flow (GE Healthcare #17-5132-03) followed by HiTrap Q (GE Healthcare #17-1153-01).
(§5) 0.5 uL compounds in DMSO are added to wells of a 384 well microtitre plate (Corning 3575). At room temperature: 10 ul PI3K reaction buffer (50 mM Hepes, 5 mM DTT, 150 mM NaCl, 10 mM beta-glycerophosphate, 10 mM MgCl2, 0.25 mM sodium cholate and 0.001% CHAPS, pH 7.00) containing ATP (25 uM, Promega) is added followed immediately by 10 ul PI3K reaction buffer containing di-C8 PI(4,5)P2 (3.5 uM, CellSignals) and PI3Kalpha (0.4875 nM, Millennium Protein Sciences Group) and the mixture is incubated with shaking at room temperature for 30 minutes. Then 5 ul PI3K stop mix (50 mM Hepes, 5 mM DTT, 150 mM NaCl, 0.01% Tween-20, 15 mM EDTA and 25 nM biotin-PI(3,4,5)P3 (Echelon) is added to quench the reaction followed immediately by addition of 5 ul HTRF detection mix (50 mM Hepes, 5 mM DTT, 150 mM NaCl, 0.01% Tween-20, 40 mM KF, 10 nM GST:GRP-1 PH domain (Millennium Protein Sciences Group), 15 nM Streptavidin-XL (CisBio) and 0.375 nM anti-GST Eu++ antibody (CisBio) at pH 7.00). The plates are then incubated for 1 hour at room temperature with shaking and then read on a BMG PheraStar Plus reader.
(§6) 2) Human PI3K beta, delta and gamma isoforms are tested using the procedure described for PI3K alpha above but with the following changes: PI3K beta (5.25 nM), PI3K delta (0.75 nM) and PI3K gamma (5 nM). All isoforms supplied by Millennium Protein Science Group.

Assay [2] concerns the target T2, PI3Kgamma (Homo sapiens, UniProt P48736).
T2 construct: His (N); host or cells: SF9 insect cells (baculovirus)
Put plainly: Human PI3K gamma enzyme assay (HTRF, as for PI3K alpha). The note with it: read-out: PI3Kgamma % inh.
Source text: as §1, §2, §3, §4, §5, §6

The target in assay [3] is T3, PI3Kbeta (Homo sapiens, UniProt P42338).
T3 construct: His (N); host or cells: SF9 insect cells (baculovirus)
T3 sequence (P42338 whole entry): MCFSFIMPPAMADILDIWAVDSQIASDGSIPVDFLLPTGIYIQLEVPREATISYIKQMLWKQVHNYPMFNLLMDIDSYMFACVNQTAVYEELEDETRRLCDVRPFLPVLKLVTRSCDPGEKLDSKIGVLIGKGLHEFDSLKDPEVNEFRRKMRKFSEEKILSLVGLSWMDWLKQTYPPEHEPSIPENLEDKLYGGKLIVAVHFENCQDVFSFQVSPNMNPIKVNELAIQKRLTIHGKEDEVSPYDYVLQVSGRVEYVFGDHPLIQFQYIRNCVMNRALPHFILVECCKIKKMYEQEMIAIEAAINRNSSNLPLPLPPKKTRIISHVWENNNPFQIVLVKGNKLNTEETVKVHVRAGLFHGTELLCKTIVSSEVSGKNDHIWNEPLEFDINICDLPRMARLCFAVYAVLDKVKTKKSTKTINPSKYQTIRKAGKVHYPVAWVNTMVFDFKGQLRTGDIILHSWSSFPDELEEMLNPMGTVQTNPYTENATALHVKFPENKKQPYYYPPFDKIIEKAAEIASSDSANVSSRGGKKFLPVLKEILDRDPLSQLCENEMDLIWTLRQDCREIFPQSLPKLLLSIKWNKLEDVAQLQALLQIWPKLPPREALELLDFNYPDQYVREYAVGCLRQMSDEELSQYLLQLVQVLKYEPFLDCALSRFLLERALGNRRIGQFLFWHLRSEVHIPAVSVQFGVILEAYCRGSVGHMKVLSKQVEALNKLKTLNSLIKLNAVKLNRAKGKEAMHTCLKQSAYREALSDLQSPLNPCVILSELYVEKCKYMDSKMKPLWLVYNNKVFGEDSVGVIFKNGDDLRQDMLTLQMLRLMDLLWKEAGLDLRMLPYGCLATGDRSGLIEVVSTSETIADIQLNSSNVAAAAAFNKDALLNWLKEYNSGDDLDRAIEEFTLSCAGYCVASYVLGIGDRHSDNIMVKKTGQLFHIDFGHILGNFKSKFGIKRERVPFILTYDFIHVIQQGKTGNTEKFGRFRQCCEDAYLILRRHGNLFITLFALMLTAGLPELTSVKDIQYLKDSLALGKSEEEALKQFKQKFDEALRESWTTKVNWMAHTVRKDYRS
T3 sequence (P27986 whole entry partner): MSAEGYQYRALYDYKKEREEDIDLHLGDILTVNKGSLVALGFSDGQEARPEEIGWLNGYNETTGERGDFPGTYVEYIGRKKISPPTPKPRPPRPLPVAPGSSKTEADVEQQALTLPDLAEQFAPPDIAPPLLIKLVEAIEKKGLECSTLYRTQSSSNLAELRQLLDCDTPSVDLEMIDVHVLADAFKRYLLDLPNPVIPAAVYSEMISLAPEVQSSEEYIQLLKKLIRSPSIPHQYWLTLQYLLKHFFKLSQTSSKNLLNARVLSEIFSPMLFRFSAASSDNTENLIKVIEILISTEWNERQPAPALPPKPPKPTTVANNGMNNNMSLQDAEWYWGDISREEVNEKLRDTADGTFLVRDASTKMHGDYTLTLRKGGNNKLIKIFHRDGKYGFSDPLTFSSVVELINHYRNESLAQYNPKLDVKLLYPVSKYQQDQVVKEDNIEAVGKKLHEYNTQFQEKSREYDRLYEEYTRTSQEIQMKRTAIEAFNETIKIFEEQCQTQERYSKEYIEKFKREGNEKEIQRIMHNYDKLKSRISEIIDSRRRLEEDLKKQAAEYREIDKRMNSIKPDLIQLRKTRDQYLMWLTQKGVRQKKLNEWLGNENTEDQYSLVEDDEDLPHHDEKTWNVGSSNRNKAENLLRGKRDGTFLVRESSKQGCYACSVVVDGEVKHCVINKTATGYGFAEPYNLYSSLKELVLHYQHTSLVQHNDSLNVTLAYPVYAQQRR
Briefly: Human PI3K beta enzyme assay (HTRF, as for PI3K alpha). The conditions noted are these: for inhibition at 1.11 µM: read-out: PI3Kbeta % inh; for inhibition at 1.11 µM / PI3Kbeta % inh: at 1.11 μM; for IC50: read-out: IC50 (inhibit PI3Kbeta).
Source text: as §1, §2, §3, §4, §5, §6

Assay [4] has as its target T4, PI3Kalpha (Homo sapiens, UniProt P42336).
T4 construct: His (N); host or cells: SF9 insect cells (baculovirus)
Briefly: Human PI3Kα enzyme assay (HTRF). The conditions noted are these: for inhibition at 1.11 µM: read-out: PI3Kalpha % inh; for PI3Kalpha % inh: at 1.11 μM.
Source text: as §1, §2, §3, §4
1) Human PI3Kα enzyme assay method
as §5

T1 sequence (O00329 whole entry): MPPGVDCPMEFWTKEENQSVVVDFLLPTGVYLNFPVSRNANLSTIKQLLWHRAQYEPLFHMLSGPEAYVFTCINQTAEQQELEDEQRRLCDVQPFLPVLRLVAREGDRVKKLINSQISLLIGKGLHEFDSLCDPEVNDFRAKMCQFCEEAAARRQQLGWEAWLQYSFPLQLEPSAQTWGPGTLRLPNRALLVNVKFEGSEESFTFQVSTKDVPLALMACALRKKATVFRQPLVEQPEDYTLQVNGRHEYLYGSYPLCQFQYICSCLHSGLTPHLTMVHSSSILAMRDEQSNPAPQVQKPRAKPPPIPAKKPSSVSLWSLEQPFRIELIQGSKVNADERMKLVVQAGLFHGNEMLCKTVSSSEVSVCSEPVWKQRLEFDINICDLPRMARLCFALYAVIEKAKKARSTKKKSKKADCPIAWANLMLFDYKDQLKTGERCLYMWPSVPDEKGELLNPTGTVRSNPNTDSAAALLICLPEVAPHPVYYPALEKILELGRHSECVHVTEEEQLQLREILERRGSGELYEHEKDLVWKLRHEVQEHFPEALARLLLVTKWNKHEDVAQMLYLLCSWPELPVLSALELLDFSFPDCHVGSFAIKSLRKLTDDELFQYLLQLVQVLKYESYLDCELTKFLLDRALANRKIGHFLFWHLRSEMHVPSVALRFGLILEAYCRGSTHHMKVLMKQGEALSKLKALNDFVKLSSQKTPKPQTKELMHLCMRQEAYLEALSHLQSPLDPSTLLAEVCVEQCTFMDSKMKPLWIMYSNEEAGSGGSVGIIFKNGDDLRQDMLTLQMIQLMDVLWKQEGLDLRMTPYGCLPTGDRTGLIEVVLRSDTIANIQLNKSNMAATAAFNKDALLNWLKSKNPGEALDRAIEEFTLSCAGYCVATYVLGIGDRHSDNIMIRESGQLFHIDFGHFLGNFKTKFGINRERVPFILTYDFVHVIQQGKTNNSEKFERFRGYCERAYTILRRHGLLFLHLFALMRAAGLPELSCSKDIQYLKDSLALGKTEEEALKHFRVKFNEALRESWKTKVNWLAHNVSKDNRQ
T1 sequence (P27986 whole entry partner): as the sequence (P27986 whole entry partner) above
T4 sequence (P42336 whole entry): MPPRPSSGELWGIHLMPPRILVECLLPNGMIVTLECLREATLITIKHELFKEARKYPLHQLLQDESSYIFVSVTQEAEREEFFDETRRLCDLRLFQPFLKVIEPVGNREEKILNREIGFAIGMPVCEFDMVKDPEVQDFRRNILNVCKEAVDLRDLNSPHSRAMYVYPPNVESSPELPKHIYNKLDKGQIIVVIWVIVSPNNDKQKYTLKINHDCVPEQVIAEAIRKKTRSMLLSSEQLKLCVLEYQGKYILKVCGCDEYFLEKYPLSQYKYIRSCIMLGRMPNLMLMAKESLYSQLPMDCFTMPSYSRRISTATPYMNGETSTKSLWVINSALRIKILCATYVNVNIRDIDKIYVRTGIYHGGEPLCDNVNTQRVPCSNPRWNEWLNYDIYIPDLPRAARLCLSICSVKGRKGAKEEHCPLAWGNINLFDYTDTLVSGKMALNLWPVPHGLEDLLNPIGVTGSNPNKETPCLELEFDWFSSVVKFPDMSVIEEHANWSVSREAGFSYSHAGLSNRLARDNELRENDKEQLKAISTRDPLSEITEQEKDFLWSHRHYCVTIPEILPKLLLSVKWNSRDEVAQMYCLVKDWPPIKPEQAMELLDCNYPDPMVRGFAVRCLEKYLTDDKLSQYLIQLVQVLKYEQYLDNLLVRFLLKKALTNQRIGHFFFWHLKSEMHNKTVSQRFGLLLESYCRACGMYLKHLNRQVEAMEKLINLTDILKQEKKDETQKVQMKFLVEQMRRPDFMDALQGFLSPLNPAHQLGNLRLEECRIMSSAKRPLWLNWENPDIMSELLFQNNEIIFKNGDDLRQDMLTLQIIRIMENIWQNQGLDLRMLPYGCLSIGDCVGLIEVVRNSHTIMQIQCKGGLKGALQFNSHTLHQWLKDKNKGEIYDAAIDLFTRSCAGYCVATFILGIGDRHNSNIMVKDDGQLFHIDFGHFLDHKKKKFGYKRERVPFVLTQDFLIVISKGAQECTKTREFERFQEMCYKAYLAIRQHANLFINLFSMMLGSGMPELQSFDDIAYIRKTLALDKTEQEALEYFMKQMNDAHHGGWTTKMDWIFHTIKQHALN
T4 sequence (P27986 whole entry partner): as the sequence (P27986 whole entry partner) above
T2 sequence (P48736 whole entry): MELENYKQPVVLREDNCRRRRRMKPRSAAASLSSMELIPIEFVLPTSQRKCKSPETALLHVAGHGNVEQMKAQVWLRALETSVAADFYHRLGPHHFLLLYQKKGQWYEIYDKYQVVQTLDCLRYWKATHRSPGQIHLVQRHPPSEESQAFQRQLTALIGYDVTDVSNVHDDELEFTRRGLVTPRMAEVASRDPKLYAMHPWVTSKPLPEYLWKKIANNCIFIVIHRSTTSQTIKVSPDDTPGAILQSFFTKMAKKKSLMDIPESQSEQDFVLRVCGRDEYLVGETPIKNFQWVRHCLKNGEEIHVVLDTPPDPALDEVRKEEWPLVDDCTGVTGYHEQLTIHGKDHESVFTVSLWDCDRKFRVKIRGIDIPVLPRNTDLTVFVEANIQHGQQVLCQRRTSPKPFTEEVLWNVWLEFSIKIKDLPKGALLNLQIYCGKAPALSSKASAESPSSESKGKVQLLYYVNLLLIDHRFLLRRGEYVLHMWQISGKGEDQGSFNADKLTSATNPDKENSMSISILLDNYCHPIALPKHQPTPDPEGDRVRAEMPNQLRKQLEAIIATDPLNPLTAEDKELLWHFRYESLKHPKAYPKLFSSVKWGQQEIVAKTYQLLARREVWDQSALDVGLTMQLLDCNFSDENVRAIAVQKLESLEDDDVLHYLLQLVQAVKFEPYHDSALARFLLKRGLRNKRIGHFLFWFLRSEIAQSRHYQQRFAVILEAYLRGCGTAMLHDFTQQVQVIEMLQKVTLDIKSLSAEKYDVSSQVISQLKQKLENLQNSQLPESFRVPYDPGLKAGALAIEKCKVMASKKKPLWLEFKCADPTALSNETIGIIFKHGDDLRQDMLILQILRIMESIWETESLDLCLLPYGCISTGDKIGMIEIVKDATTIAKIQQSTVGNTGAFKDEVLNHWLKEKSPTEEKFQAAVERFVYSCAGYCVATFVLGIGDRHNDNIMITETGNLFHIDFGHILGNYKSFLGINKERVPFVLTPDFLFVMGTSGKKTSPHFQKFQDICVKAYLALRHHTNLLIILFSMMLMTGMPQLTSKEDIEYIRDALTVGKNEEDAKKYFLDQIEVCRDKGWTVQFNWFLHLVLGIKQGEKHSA

Take `NC(=O)[C@@H]1NC(=O)c2sc(N3CCOCC3)cc2[C@H]1c1ccc(Cl)c(Cl)c1` (relative stereo) [Compound 146, rel-(4R,5R)-4-(3,4-dichlorophenyl)-2-(morpholin-4-yl)-7-oxo-4,5,6,7-tetrahydrothieno[2,3-c]pyridine-5-carboxamide]: the inhibition at 1.11 µM is 99.7% in assay [1], 50.7% in assay [2], 107% in assay [3] and 40.4% in assay [4].
Take `O=C1NCCC(c2ccc(Cl)cc2)c2cc(N3CCOCC3)sc21` (stereo not drawn) [Compound 148]: the inhibition at 1.11 µM was 98.2% in assay [1] and 13.2% in assay [2]. In assay [3], the PI3Kbeta % inh is 118.63%. Moreover, the PI3Kalpha % inh in assay [4] turned out to be 24.59%.
Regarding `CCNC(=O)[C@@H]1NC(=O)c2sc(N3CCOCC3)cc2[C@H]1c1ccc(Cl)cc1` [Compound 197], the inhibition at 1.11 µM was found to be 47.4% in assay [1], 9.08% in assay [2] and 84.1% in assay [3]. In addition, the PI3Kalpha % inh in assay [4] was 19.34%.
`Cc1cc(C2CNC(=O)c3sc(N4CCOCC4)c(C#N)c32)ccc1Cl` (stereo not drawn) [Compound 190]: the inhibition at 1.11 µM stood at 101% in assay [1], 35.8% in assay [2], 123% in assay [3] and 57.5% in assay [4].
`O=C1NCC(c2ccc(Cl)cc2)c2nc(N3CCOCC3)sc21` (stereo not drawn) [Compound 124]: the inhibition at 1.11 µM in assay [1] is 59.2%; in assay [2], 9.41%; in assay [3] it was 93.5%; in assay [4] it was 12.2%.
Consider `COC(=O)[C@@H]1NC(=O)c2sc(N3CCOCC3)cc2[C@H]1c1ccc(Cl)c(Cl)c1` (relative stereo) [Compound 127, methyl rel-(4R,5R)-4-(3,4-dichlorophenyl)-2-(morpholin-4-yl)-7-oxo-4,5,6,7-tetrahydrothieno[2,3-c]pyridine-5-carboxylate], for which the inhibition at 1.11 µM in assay [3] came to 75.8%; in assay [4] it was 31.4%.
`CNC(=O)[C@@H]1NC(=O)c2sc(-c3ccncc3)cc2[C@H]1c1ccc(Cl)cc1` [Compound 160] came in with a PI3Kbeta % inh in assay [3] of 76.80%. For the same compound, the PI3Kalpha % inh in assay [4] is given as 11.18%.
Take `O=C1NCCC(c2ccc(Cl)cc2)c2cc(N3CCOCC3)sc21` (stereo not drawn) [Compound 201, 4-(4-chlorophenyl)-2-(morpholin-4-yl)-4,5,6,7-tetrahydro-8H-thieno[2,3-c]azepin-8-one]: the PI3Kbeta % inh in assay [3] was determined as 79.38%. Further, in assay [4], the inhibition at 1.11 µM is 16.7%.
As to `COC(=O)c1cc(C2CCNC(=O)c3sc(N4CCOCC4)nc32)ccc1Cl` (stereo not drawn) [Compound 174, methyl 2-chloro-5-[2-(morpholin-4-yl)-4-oxo-5,6,7,8-tetrahydro-4H-[1,3]thiazolo[5,4-c]azepin-8-yl]benzoate], the inhibition at 1.11 µM is 82.5% in assay [3] and 4.56% in assay [4].
As for `O=C1NCC(c2ccc(Cl)cc2)c2c1sc(N1CCOCC1)c2Br` (single isomer, unassigned) [Compound 181, 3-bromo-4-(4-chlorophenyl)-2-(morpholin-4-yl)-5,6-dihydrothieno[2,3-c]pyridin-7(4H)-one], the results for the inhibition at 1.11 µM in assay [3] and in assay [4] were 69.5% and 8.59%, respectively.
Regarding `O=C1N[C@@H](CO)CC(c2ccc3ccccc3c2)c2nc(N3CCOCC3)sc21` (stereo partly drawn) [Compound 120], the PI3Kbeta % inh in assay [3] was found to be 44.05%. The same compound yielded a PI3Kalpha % inh in assay [4] of 12.90%.
Turning to `O=C1OC2(CCC(=O)c3sc(-c4ccncc4)cc32)c2ccc(Cl)cc21` (stereo not drawn) [Compound 14, 5-chloro-2′-pyridin-4-yl-5′,6′-dihydro-3H,7′H-spiro[2-benzofuran-1,4′-[1]benzothiophene]-3,7′-dione], in assay [3], the inhibition at 1.11 µM was 31.9% and the 50% inhibitory concentration (IC50) was above 1000 nM. Besides, in assay [4], the inhibition at 1.11 µM turned out to be 8.7%.
For the compound `O=C1NCC=C(c2ccc3ccncc3c2)c2nc(N3CCOCC3)sc21` [Compound 195], the inhibition at 1.11 µM in assay [3] turned out to be 62.5%; in assay [4] it was 16.5%.
The like results for `COC(=O)C1C(=O)c2sc(N3CCOCC3)cc2C1c1ccc(Cl)c(Cl)c1` (stereo not drawn) [Compound 139, methyl 4-(3,4-dichlorophenyl)-2-(morpholin-4-yl)-6-oxo-5,6-dihydro-4H-cyclopenta[b]thiophene-5-carboxylate] were, in that order, 95.6% and 14.4%.
The corresponding values for `O=C1OC2(CCNC(=O)c3sc(N4CCOCC4)nc32)c2ccc(Cl)cc21` (stereo not drawn) [Compound 172, 5-chloro-2′-(morpholin-4-yl)-6′,7′-dihydro-3H-spiro[2-benzofuran-1,8′-[1,3]thiazolo[5,4-c]azepine]-3,4′(5′H)-dione] are 49.3% and 16.1%.
Regarding `N#Cc1c(N2CCOCC2)sc2c1C(c1ccc(Cl)c(Cl)c1)CCNC2=O` (stereo not drawn) [Compound 199], in assay [3], the PI3Kbeta % inh turned out to be 115.55%. The compound further had a PI3Kalpha % inh in assay [4] of 65.98%.
Turning to `C=CCN1C(=O)c2sc(N3CCOCC3)cc2C(c2ccc(Cl)c(Cl)c2)C1C(=O)OC` (stereo not drawn) [Compound 166, methyl 6-allyl-4-(3,4-dichlorophenyl)-2-(morpholin-4-yl)-7-oxo-4,5,6,7-tetrahydrothieno[2,3-c]pyridine-5-carboxylate], the inhibition at 1.11 µM was determined as 69.2% in assay [3] and 7.59% in assay [4].
Take `O=C1N[C@@H](C(=O)NCCCO)[C@H](c2ccc(Cl)cc2)c2cc(N3CCOCC3)sc21` [Compound 200]: the PI3Kbeta % inh in assay [3] is reported as 53.94%. This compound also gave a PI3Kalpha % inh in assay [4] of 48.20%.
Consider `Cc1cc(C2CNC(=O)c3sc(N4CCOCC4)cc32)ccc1Cl` (stereo not drawn) [Compound 194], for which the inhibition at 1.11 µM came to 113% in assay [3] and 38.6% in assay [4].
On to `NC(=O)c1cc(C2CCNC(=O)c3sc(N4CCOCC4)nc32)ccc1Cl` (stereo not drawn) [Compound 167], for which the inhibition at 1.11 µM in assay [3] came to 81.2%; in assay [4] it was 5.27%.
Regarding `CNC(=O)c1[nH]c(=O)c2sc(N3CCOCC3)cc2c1-c1ccc(Cl)cc1` [Compound 168], the values for the inhibition at 1.11 µM in assay [3] and in assay [4] were 117% and 74.5%, respectively.
The corresponding values for `O=C1NCC(c2ccc3ccncc3c2)c2nc(N3CCOCC3)sc21` (stereo not drawn) [Compound 189] are 116% and 25.9%.
The corresponding values for `CNC(=O)[C@@H]1NC(=O)c2sc(N3CCOCC3)cc2[C@H]1c1ccc(Cl)c(Cl)c1` [Compound 132] are 115% and 54%.
The like results for `N#Cc1c(N2CCOCC2)sc2c1C(c1ccc(Cl)c(Cl)c1)CNC2=O` (stereo not drawn) [Compound 159] were, in that order, 118% and 67.2%.
In the case of `O=C1NCCC(c2ccc3ccncc3c2)c2nc(N3CCOCC3)sc21` (stereo not drawn) [Compound 165], the inhibition at 1.11 µM in assay [3] was 109%; in assay [4] it was 13.3%.
Take `CNC(=O)[C@@H]1NC(=O)c2sc(C3=CCOCC3)cc2[C@H]1c1ccc(Cl)cc1` [Compound 207]: the PI3Kbeta % inh in assay [3] came out at 62.94%. Also, in assay [4], the inhibition at 1.11 µM was determined as 42.9%.
Consider `CC1(C)CC(=O)c2sc(-c3ccncc3)cc2C1(O)c1ccc(Cl)cc1` (stereo not drawn) [Compound 5, 4-(4-chlorophenyl)-4-hydroxy-5,5-dimethyl-2-pyridin-4-yl-5,6-dihydro-1-benzothiophen-7(4H)-one], for which the figures for the inhibition at 1.11 µM in assay [3] and in assay [4] were 32.8% and -3.8%, respectively. In assay [3], the IC50 was above 1000 nM.
`CC(=O)Nc1cc(-c2cc3c(s2)C(=O)CC3c2ccc(Cl)cc2)ccn1` (stereo not drawn) [Compound 16, N-(4-(4-(4-chlorophenyl)-6-oxo-5,6-dihydro-4H-cyclopenta[b]thiophen-2-yl)pyridin-2-yl)acetamide]: in assay [3], the inhibition at 1.11 µM was 54.5% and the half-maximal inhibitory concentration (IC50) was 100 to 1000 nM. Besides, the inhibition at 1.11 µM in assay [4] worked out at 24.5%.

For the origin of these results see patent US8765746B2 (Millennium Pharmaceuticals, Inc., priority 2010, dated 2014).
